Measured values reported in patent EP0079675A1, “Oxazolidinedione derivatives” (PFIZER INC., priority 1981, dated 1983).

How the values were obtained:
[1] = target: T1, aldose reductase enzyme obtained from calf lens (Bos taurus, UniProt P16116); assay: inhibition of aldose reductase enzyme activity (procedure of S. Hayman et al., modified by K. Sestanj et al.); assay type: biochemical; conditions: partially purified calf lens aldose reductase, read-out: Percent Inhibition (%); for inhibition at 10 µM: 10^-5M; for inhibition at 1 µM: 10^-6M; for inhibition at 0.1 µM: 10^-7M
T1 construct: partially purified aldose reductase enzyme obtained from calf lens; from tissue; host or cells: calf lens
Protocol: (§1) The activity of the compounds of the present invention, as agents for the control of chronic diabetic complications, is determined by their ability to successfully pass one or more of the following standard biological or pharmacological tests, viz., (1) measuring their ability to inhibit the enzyme activity of isolated aldose reductase; (2) measuring their ability to reduce or inhibit sorbitol accumulation in the sciatic nerve of acutely streptozotocinized (i.e., diabetic) rats; (3) measuring their ability to reverse already-elevated sorbitol levels in the sciatic nerve and lens of chronic streptozotocin-induced diabetic rats; (4) measuring their ability to prevent or inhibit galactitol formation in the lens of acutely galactosemic rats, and (5) measuring their ability to delay cataract formation and reduce the severity of lens opacities in chronic galactosemic rats.
The following s^piro-oxindole oxazolidinedione final products of Examples 1-4, respectively, were tested for their ability to reduce or inhibit aldose reductase enzyme activity via the procedure of S. Hayman et al., as described in the Journal of Biological Chemistry, Vol 240, p.. 877 (1965) and as modified by K. Sestanj et al. in U.S. Patent No. 3,821,383. In every case, the substrate employed was partially purified aldose reductase enzyme obtained from calf lens.

[2] = tested on: sorbitol levels in diabetic rats; assay: inhibition of sorbitol formation/accumulation in diabetic rats; assay type: in vivo; conditions: oral route, dose levels ranging from 0.5 mg./kg. to 20 mg./kg.
Excerpt: As previously indicated, the spiro-oxindole oxazolidinedione compounds of this invention are readily adapted to therapeutic use as aldose reductase inhibitors for the control of chronic diabetic com^pli- cations, in view of their ability to reduce lens sorbitol levels in diabetic subjects to a statistically significant degree. […] Furthermore, the herein described compounds of this invention can be administered by either the oral or parenteral routes of administration. […]
as §1

inhibition at 10 µM [1]	inhibition at 1 µM [1]	inhibition at 0.1 µM [1]	inhibition at 100 µM ([1]; 10^-4M)	Structure (SMILES)	inhibit the formation of sorbitol levels [2]
87%	65%	25%		O=C1NC(=O)C2(O1)C(=O)N(c1ccc(F)cc1)c1ccc(F)cc12 (centres unmarked) [Product of Example 1, 1-(p-fluorophenyl)-5-fluoro-spiro-[indoline-3,5-oxazolidine]-2,2',4'-trione]	
80%	45%	17%		CC(C)N1C(=O)C2(OC(=O)NC2=O)c2cc(Cl)ccc21 (centres unmarked) [Product of Example 2, 1-isopropyl-5-chloro-s^piro-[indoline-3,5'-oxazolidine]-2,2',4'-trione]	
67%	31%	10%		CN1C(=O)C2(OC(=O)NC2=O)c2cc(Cl)ccc21 (centres unmarked) [Product of Example 3]	
89%	81%	60%	100%	O=C1NC(=O)C2(O1)C(=O)N(Cc1ccc(Cl)cc1)c1ccc(Cl)cc12 (centres unmarked) [Product of Example 4, 1-(p-chlorobenzyl)-5-chloro-spiro-(indoline-3,5'-oxazolidine]-2,2',4'-trione]	to a significantly high degree
